Source: ChEMBL document CHEMBL1201862, “PubChem BioAssay data set” (2004)
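96-well plates; 48 h exposure; 5 concentrations. Endpoints by linear interpolation between flanking doses. Not reached: highest tested concentration assigned. GI50 is the concentration that inhibits growth by half.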 The source made the active and inactive calls. Cut-off read from the data, not from the text of the source: active = GI50 up to about 1.1 µM and inactive = higher.

Experiments:
Assay in all cases: DTP human tumour cell line panel, 48 h
[1] = tested on: SNB-19
[2] = tested on: UACC-62
[3] = tested on: ACHN
[4] = tested on: A549
[5] = tested on: SF-268
[6] = tested on: RPMI-8226
[7] = tested on: M14
[8] = tested on: RXF 631
[9] = tested on: COLO 205
[10] = tested on: 786-0
[11] = tested on: SNB-75
[12] = tested on: SF-295
[13] = tested on: SK-MEL-28
[14] = tested on: DMS-114
[15] = tested on: UACC-257
[16] = tested on: LXFL 529
[17] = tested on: HOP-62
[18] = tested on: KM-20L2
[19] = tested on: MOLT-4
[20] = tested on: HOP-18
[21] = tested on: M19-MEL
[22] = tested on: NCI-H522
[23] = tested on: NCI-H460
[24] = tested on: CCRF-CEM
[25] = tested on: SN12C
[26] = tested on: HCT-15
[27] = tested on: SK-OV-3
[28] = tested on: HOP-92
[29] = tested on: HL-60
[30] = tested on: OVCAR-4
[31] = tested on: UO-31
[32] = tested on: KM12
[33] = tested on: OVCAR-8
[34] = tested on: Malme-3M
[35] = tested on: A498
[36] = tested on: NCI-H226
[37] = tested on: HCT-116
[38] = tested on: XF498
[39] = tested on: HCC 2998
[40] = tested on: SR
[41] = tested on: HT-29
[42] = tested on: K562
[43] = tested on: SNB-78
[44] = tested on: OVCAR-3
[45] = tested on: IGROV-1
[46] = tested on: U-251
[47] = tested on: DLD-1
[48] = tested on: SF-539
[49] = tested on: EKVX
[50] = tested on: LOX IMVI
[51] = tested on: CAKI-1
[52] = tested on: SW-620
[53] = tested on: SK-MEL-2
[54] = tested on: OVCAR-5
[55] = tested on: TK-10
[56] = tested on: DMS-273
[57] = tested on: NCI-H23
[58] = tested on: SK-MEL-5

Measured: GI50

CN1CCCNCCN(CCc2ccccn2)CCCN(C)CC1
inactive: [1] > 100 µM | [2] > 100 µM | [3] > 100 µM | [4] > 100 µM | [5] > 100 µM | [6] > 52.8 µM | [7] > 95.7 µM | [8] > 100 µM | [9] > 43.5 µM | [10] 24.2 µM | [11] > 100 µM | [12] > 100 µM | [13] > 100 µM | [14] > 42.6 µM | [15] > 100 µM | [16] > 75.3 µM | [17] > 100 µM | [18] > 100 µM | [19] > 100 µM | [20] > 100 µM | [21] > 59.4 µM | [22] > 100 µM | [23] > 67.3 µM | [24] > 41.9 µM | [25] > 100 µM | [27] > 100 µM | [28] > 100 µM | [29] > 48.8 µM | [30] > 58.5 µM | [31] > 100 µM | [32] > 67.6 µM | [33] > 100 µM | [34] > 100 µM | [35] > 100 µM | [36] > 100 µM | [37] > 66.2 µM | [38] > 100 µM | [39] > 100 µM | [40] 29.1 µM | [41] > 100 µM | [42] > 44.9 µM | [43] > 100 µM | [44] > 100 µM | [45] > 100 µM | [46] > 94.6 µM | [47] > 88.1 µM | [48] > 100 µM | [49] > 91.4 µM | [50] > 50.1 µM | [51] > 100 µM | [52] > 33.8 µM | [53] > 100 µM | [54] > 100 µM | [55] > 100 µM | [56] 27.8 µM | [57] > 100 µM | [58] > 100 µM
> 43.5 µM: [26]
